Measured values: patent US20250275976A1, “Methods of Treating Neuroinflammatory Conditions” (Athira Pharma, Inc., priority 2022, published 2025)
Square brackets hold non-standard residues; d marks the D form. Peptide text beside a SMILES is read from it. * marks the point of attachment. Hexanoyl = CCCCCC(=O)*; Ahx = NCCCCCC(=O)O

Columns and labels:
[1] = test system: dopaminergic (DA) neurons; assay: TH+ neuron number and neurite network after MPP+, rotenone or 6-OHDA injury; type: cell-based, rat (Wistar); design: key to Neurite Network (significance vs insult) / TH+ neuron number (significance vs insult): “NS” indicates that the comparison was not statistically significant; “+” indicates that p<0.05
Excerpt: A range of neurodegenerative disease states converge on neuroinflammatory dysfunction related to mitochondrial impairment and the generation of reactive oxygen species (ROS). Chemical disruption of mitochondrial function by treatment of neuron cultures with 1-methyl-4-phenylpyridium (MPP+) or the pesticide rotenone can lead to activation of inflammatory signaling pathways and death via apoptotic and necrotic mechanisms. Similarly, intracellular oxidation of 6-hydroxydopamine (6-OHDA), which is readily absorbed by dopaminergic neurons in culture, leads to production of ROS within the cell, activation of inflammatory signaling, and cell death. In vitro exposure to these neurotoxins has been successfully used to model the effects of neurodegenerative inflammation and identify therapeutic agents that can protect neurons from these effects.
Midbrain tissue obtained from 15-day old rat (Wistar) embryos was dissected and the ventral mesencephalic region, an area rich in dopaminergic (DA) neurons was removed and dissociated by trypsinization and mechanical passage. Cells were cultured in Neurobasal medium supplemented with B27 (2%), L-glutamine (2 mM), 2% of Penicillin-Streptomycin (PS) solution, 10 ng/mL of Brain-derived neurotrophic factor (BDNF) and 1 ng/mL of Glial-Derived Neurotrophic Factor (GDNF).
Viable cells were seeded at a density of 40,000 cells/well in 96-well plates and maintained at 37° C. in 5% CO2. […] Subsequently, chemical insults were added to the culture in separate plates as follows: 4 uM of MPP+ for 48 hours, 10 nM of rotenone for 24 hours, and 20 uM of 6-OHDA for 24 hours.
Following incubation, cell culture supernatant was replaced by a fixative solution of 4% paraformaldehyde in PBS for 20 minutes and prepared for immunostaining. Fixed cultures were stained with a monoclonal anti-Tyrosine Hydroxylase (TH) antibody (1:10000 in PBS, 2 hrs, RT) followed by incubation with appropriate fluorescent secondary antibody and Hoechst dye. Automated fluorescent imaging, 20 images per well, was performed at 10× magnification. Computation image analysis was used to quantify the total number of TH+ neurons, and the total length of the neurite network. Statistical analysis using a one-way ANOVA followed by Fishers LSD test compared inflammatory insult cultures with and without test compound treatment.

[2] = test system: BV2 microglia; assay: Nitrite production in LPS-stimulated BV2 microglia (Griess Reagent System); type: cell-based; design: key to Inflammatory Readout: Nitrite (significance of reduction): “NS” indicates a non-significant reduction NO production; “++” indicates a p value < 0.005 in Dunnett's multiple comparison; “+++” indicates a p value < 0.0005 in Dunnett's multiple comparison; settings: for Inflammatory Readout: Nitrite (significance of reduction): LPS pre-treatment 45 minutes, compound 23.5 hours
Excerpt: Microglia are the resident immune cells of the brain and, when activated by pathological conditions, promote broad-spectrum neuroinflammation. When activated by toxic exogenous substances, microglia produce excessive reactive oxygen species (ROS), nitric oxide (NO), and proinflammatory cytokines, which further propagates disease pathogenesis. BV2 microglia were used as an in-vitro cell model to evaluate mechanisms relevant to inflammation in the CNS. Upon activation of TLR4 with LPS, microglia are activated and trigger excessive oxidative stress, a process that is partially mediated by AKT phosphorylation (pAKT) and activation. Microglia activation also leads to a range of changes in gene expression.
Compound A19 active metabolite (Compound A19-AM) was investigated for whether it could reduce the inflammatory effect of LPS in microglia. Inflammatory activation of BV2 microglia cells was stimulated by pre-treatment with LPS for 45 minutes, followed by the addition of test compound for 1 hour (pAKT) or 23.5 hours (NO and gene expression panel). For pAKT measurement, cells were lysed and the pAKT measurement was conducted using the HTRF system. For NO production, culture supernatants were collected and assessed for the presence of nitrite, a primary metabolic product of nitric oxide.
Quantification of nitrite production in cell culture supernatants was accomplished using the Griess Reagent System (Promega, G2930). Measurement of pAKT was assessed utilizing Phospho-AKT 1/2/3 (Ser473) […] Cellular Detection Kit (CisBio, 64AKSPEH).
Data analysis was performed via One-way ANOVA with Dunnett's multiple comparisons test compared to LPS-stimulated, vehicle treated cultures using Prism statistical software (GraphPad). Tabular data indicates significance of reduction in the indicated analyte at the indicated dose.

[3] = test system: primary culture of both cortical neurons and microglia; assay: Microglial activation (Iba1 area) after Aβ1-42 challenge; type: cell-based; design: key to Significant decrease in Iba1 area, compared to vehicle treated (Aβ challenge): “NS” indicates a non-significant change in Iba1 area; “+” indicates a p value < 0.05 in Fisher's LSD post-test compared to Aβ challenged
[4] = 6-OHDA injury (20 uM, 24 hrs), dose 0.01 nM
[5] = 6-OHDA injury (20 uM, 24 hrs), dose 0.1 nM
[6] = 6-OHDA injury (20 uM, 24 hrs), dose 1 nM
[7] = 6-OHDA injury (20 uM, 24 hrs), dose 10 nM
[8] = 6-OHDA injury (20 uM, 24 hrs), dose 100 nM
[9] = 6-OHDA injury (20 uM, 24 hrs), dose 1000 nM
[10] = MPP+ injury (4 uM, 48 hrs), dose 0.01 nM
[11] = MPP+ injury (4 uM, 48 hrs), dose 0.1 nM
[12] = MPP+ injury (4 uM, 48 hrs), dose 1 nM
[13] = MPP+ injury (4 uM, 48 hrs), dose 10 nM
[14] = MPP+ injury (4 uM, 48 hrs), dose 100 nM
[15] = MPP+ injury (4 uM, 48 hrs), dose 1000 nM
[16] = Rotenone injury (10 nM, 24 hrs), dose 0.01 nM
[17] = Rotenone injury (10 nM, 24 hrs), dose 0.1 nM
[18] = Rotenone injury (10 nM, 24 hrs), dose 1 nM
[19] = Rotenone injury (10 nM, 24 hrs), dose 10 nM
[20] = Rotenone injury (10 nM, 24 hrs), dose 100 nM
[21] = Rotenone injury (10 nM, 24 hrs), dose 1000 nM

For CCCCCC(=O)N[C@@H](Cc1ccc(O)cc1)C(=O)N[C@H](C(=O)NCCCCCC(N)=O)[C@@H](C)CC [Compound A19 active metabolite, dihexa] (Hexanoyl-Tyr-Ile-[Ahx]-NH2), the “Neurite Network (significance vs insult)” value [1, 4] was “NS”, the “TH+ neuron number (significance vs insult)” value [1, 4] was “NS” and the “Neurite Network (significance vs insult)” value [1, 5] was “NS”. For the same molecule, the “TH+ neuron number (significance vs insult)” value [1, 5] was “NS”, the “Neurite Network (significance vs insult)” value [1, 6] was “NS” and the “TH+ neuron number (significance vs insult)” value [1, 6] was “+ (“+” indicates that p<0.05)”. The “Neurite Network (significance vs insult)” value [1, 7] was “+ (“+” indicates that p<0.05)”, the “TH+ neuron number (significance vs insult)” value [1, 7] was “+ (“+” indicates that p<0.05)” and the “Neurite Network (significance vs insult)” value [1, 8] was “+ (“+” indicates that p<0.05)”. The “TH+ neuron number (significance vs insult)” value [1, 8] was “+ (“+” indicates that p<0.05)”, the “Neurite Network (significance vs insult)” value [1, 9] was “+ (“+” indicates that p<0.05)” and the “TH+ neuron number (significance vs insult)” value [1, 9] was “+ (“+” indicates that p<0.05)”. For the same molecule, the “Neurite Network (significance vs insult)” value [1, 10] was “NS”, the “TH+ neuron number (significance vs insult)” value [1, 10] was “NS” and the “Neurite Network (significance vs insult)” value [1, 11] was “NS”. For the same molecule, the “TH+ neuron number (significance vs insult)” value [1, 11] was “NS”, the “Neurite Network (significance vs insult)” value [1, 12] was “NS” and the “TH+ neuron number (significance vs insult)” value [1, 12] was “+ (“+” indicates that p<0.05)”. The “Neurite Network (significance vs insult)” value [1, 13] was “NS”, the “TH+ neuron number (significance vs insult)” value [1, 13] was “+ (“+” indicates that p<0.05)” and the “Neurite Network (significance vs insult)” value [1, 14] was “+ (“+” indicates that p<0.05)”. The “TH+ neuron number (significance vs insult)” value [1, 14] was “+ (“+” indicates that p<0.05)”, the “Neurite Network (significance vs insult)” value [1, 15] was “+ (“+” indicates that p<0.05)” and the “TH+ neuron number (significance vs insult)” value [1, 15] was “+ (“+” indicates that p<0.05)”. The “Neurotoxic impact of inflammatory-relevant chemical insults (result in words)” value ([1]; MPP+, rotenone, 6-OHDA) was “reduces the neurotoxic impact of inflammatory-relevant chemical insults”, the “Neurite Network (significance vs insult)” value [1, 16] was “NS” and the “TH+ neuron number (significance vs insult)” value [1, 16] was “NS”. For the same molecule, the “Neurite Network (significance vs insult)” value [1, 17] was “NS”, the “TH+ neuron number (significance vs insult)” value [1, 17] was “NS” and the “Neurite Network (significance vs insult)” value [1, 18] was “NS”. For the same molecule, the “TH+ neuron number (significance vs insult)” value [1, 18] was “NS”, the “Neurite Network (significance vs insult)” value [1, 19] was “NS” and the “TH+ neuron number (significance vs insult)” value [1, 19] was “+ (“+” indicates that p<0.05)”. The “Neurite Network (significance vs insult)” value [1, 20] was “+ (“+” indicates that p<0.05)”, the “TH+ neuron number (significance vs insult)” value [1, 20] was “+ (“+” indicates that p<0.05)” and the “Neurite Network (significance vs insult)” value [1, 21] was “+ (“+” indicates that p<0.05)”. The “TH+ neuron number (significance vs insult)” value [1, 21] was “+ (“+” indicates that p<0.05)”, the “Production of nitrite (result in words)” value ([2]; LPS-stimulated BV2) was “significantly reduced” and the “Inflammatory Readout: Nitrite (significance of reduction)” value ([2]; dose 0.01 nM) was “++ (“++” indicates a p value < 0.005 in Dunnett's multiple comparison)”. For the same molecule, the “Inflammatory Readout: Nitrite (significance of reduction)” value ([2]; dose 1 nM) was “+++ (“+++” indicates a p value < 0.0005 in Dunnett's multiple comparison)”, the “Inflammatory Readout: Nitrite (significance of reduction)” value ([2]; dose 10 nM) was “NS” and the “Significant decrease in Iba1 area, compared to vehicle treated (Aβ challenge)” value (shortened to “Significant decrease in Iba1 area”) ([3]; 100 nM, Pre-(60 min) and Co- Aβ challenge) was “+ (“+” indicates a p value < 0.05 in Fisher's LSD post-test compared to Aβ challenged)”. The “Significant decrease in Iba1 area” value ([3]; 100 nM, Pre-(60 min) and post-(24 h) Aβ challenge) was “NS”, the “Significant decrease in Iba1 area” value ([3]; 100 nM, Pre-(60 min), Co-, and post-(24 h) Aβ challenge) was “+ (“+” indicates a p value < 0.05 in Fisher's LSD post-test compared to Aβ challenged)” and the “Significant decrease in Iba1 area” value ([3]; 1 μM, Pre-(60 min) and Co- Aβ challenge) was “+ (“+” indicates a p value < 0.05 in Fisher's LSD post-test compared to Aβ challenged)”. For the same molecule, the “Significant decrease in Iba1 area” value ([3]; 1 μM, Pre-(60 min) and post-(24 h) Aβ challenge) was “NS”, the “Significant decrease in Iba1 area” value ([3]; 1 μM, Pre-(60 min), Co-, and post-(24 h) Aβ challenge) was “+ (“+” indicates a p value < 0.05 in Fisher's LSD post-test compared to Aβ challenged)” and the “Significant decrease in Iba1 area” value ([3]; 60 min pre-Aβ challenge, concentration not given) was “+ (“+” indicates a p value < 0.05 in Fisher's LSD post-test compared to Aβ challenged)”. For the same molecule, the “Microglial activation, as measured by Iba1 area (result in words)” value ([3]; Aβ1-42 challenge 72 hours) was “significantly reduced microglial activation”.
